{"source": "patent US9283243B2", "about": "“CD36 inhibition to control obesity and insulin sensitivity” (CORNELL UNIVERSITY CORNELL CENTER FOR TECHNOLOGY, …, priority 2010, dated 2016)", "key": {"[1]": {"molecular_target": "T1, CD36 (Homo sapiens, UniProt P16671)", "T1 sequence (P16671 whole entry)": "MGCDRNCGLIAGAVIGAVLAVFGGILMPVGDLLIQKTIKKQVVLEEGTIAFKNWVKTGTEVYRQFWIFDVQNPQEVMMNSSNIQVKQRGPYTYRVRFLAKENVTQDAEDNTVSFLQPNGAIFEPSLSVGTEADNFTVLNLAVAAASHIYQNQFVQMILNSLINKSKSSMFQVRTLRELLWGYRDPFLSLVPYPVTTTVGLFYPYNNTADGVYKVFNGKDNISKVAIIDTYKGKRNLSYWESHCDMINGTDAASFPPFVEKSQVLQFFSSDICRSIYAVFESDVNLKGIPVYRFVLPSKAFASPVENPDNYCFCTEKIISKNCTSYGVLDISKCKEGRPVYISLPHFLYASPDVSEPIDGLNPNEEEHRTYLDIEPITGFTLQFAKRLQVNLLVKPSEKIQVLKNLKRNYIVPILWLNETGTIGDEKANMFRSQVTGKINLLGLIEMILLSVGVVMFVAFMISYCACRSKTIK", "conditions": "Xu, Y et al., Anal Biochem 2010; cited from earlier work"}, "[2]": {"test_system": "CD36", "conditions": "literature, cited from earlier work"}, "[3]": {"test_system": "CD36 mRNA", "assay": "CD36 siRNA transfection in C8-D1A cells, CD36 mRNA levels", "format": "cell-based", "conditions": "20 nM siRNA, 24h after transfection, N=4, vs negative control", "description": "FIG. 4. Efficacy of CD36 siRNA. 20 nM siRNA either singly or in combination were transfected in C8-D1A cells. CD36 mRNA levels were measured 24h later. N=4. Negative controls were adjusted to the amount of siRNA. **p<0.01, ***p<0.001 vs correponding control.\nCD36 was inhibited using an RNAi technique. 20 nM siRNA either singly or in combination were transfected in C8-D1A cells. CD36 mRNA levels were measured 24h later. N=4. Negative controls were adjusted to the amount of siRNA. **p<0.01, ***p<0.001 vs correponding control."}, "[4]": {"test_system": "hyperlipidemic ApoE KO (AKO) mice", "assay": "Chronic SAB treatment of ApoE KO mice fed a high fat diet for 8 weeks: body weight, fat, cholesterol, liver and vessel lipid", "format": "in vivo, mouse", "conditions": "for average visceral fat weight: p<0.001", "source_text": "(§1) FIG. 1A-1I. In vivo effect of chronic SAB treatment on physiological responses. (A), Body weight changes in ApoE KO mice fed a high fat diet for 8 weeks in vehicle (Veh)- and salvianolic acid (SAB)-treated mice. (B), Pictures were taken at the end of 8 weeks of high fat diet. […] (C), Fasting blood glucose levels. (D), Glucose tolerance test. (E), Area under curve (AUC). (F), CD36 mRNA levels in peritoneal macrophages and spleen from vehicle and SAB treated mice. (G), Measurement of lipid content from blood vessels. Lipid extraction and determination was performed using published methods (Kim et al., 2008). (H), Fold increases of plasma cholesterol levels 4 and 8 weeks after high fat diet. (I), Oil red O staining in the liver of vehicle and SAB treated mice. […] Number in parentheses indicates number of animals for the measurements.\nFIG. 2A-2B. Visceral fat weight in high fat fed ApoE KO mice treated with SAB (100 mg/kg) for 8 weeks. 100 mg/kg SAB or vehicle (veh) was injected every other day by subcutaneous injection. n=8-10/group. […] (B), SAB reduced visceral fat weight from average=81 mg/animal to average=32 mg/animal. ***, p<0.001.\nChronic SAB treatment in hyperlipidemic ApoE KO (AKO) mice reduces weight gain and visceral fat accumulation. […] Feeding a high fat diet to the ApoE KO mice for 8 weeks increases plasma cholesterol levels approximately 5 fold (Kim et al., 2008). Six week old male ApoE KO (HL AKO) mice were fed a high fat diet for 8 weeks with or without SAB (100 mg/kg, subcutaneously every other day). […] The difference in weight between the groups was apparent by the 3rd week of treatment (FIG. 1A). […] Thus, SAB reduces body weight and fat accumulation, particularly visceral/abdominal fat accumulation and liver fat deposits, and also lowers plasma cholesterol.\nVisceral fat weight in high fat fed ApoE KO mice treated with either vehicle or SAB (100 mg/kg) for 8 weeks. 100 mg/kg SAB or vehicle (veh) was injected every other day by subcutaneous injection. n=8-10 mice/group, ***, p<0.001. […] SAB reduced visceral fat weight by 60% (32 mg average visceral fat weight in SAB treated mice versus 81 mg average visceral fat weight in controls; FIG. 2B). This provides further evidence that CD36 antagonists can reduce fat accumulation, particularly visceral fat accumulation."}, "[5]": {"test_system": "hyperlipidemic ApoE KO (AKO) mice", "assay": "Fasting blood glucose and glucose tolerance test in SAB-treated high fat fed ApoE KO mice", "format": "in vivo, mouse", "source_text": "as §1\nSAB treatment improves insulin sensitivity. Fasting blood glucose levels were similar in SAB-treated and control mice at zero, four, and eight weeks of treatment (FIG. 1C). However, when mice were challenged with glucose tolerance test (an intraperitoneal injection of […]), blood glucose was cleared much faster in SAB-treated mice (45 minutes after challenge, initial blood glucose spike reduced by 75%) relative to vehicle-treated mice (45 minutes after challenge, initial spike in blood glucose reduced by less than 10%; FIG. 1D)."}, "[6]": {"test_system": "CD36 mRNA", "assay": "CD36 gene expression in peritoneal macrophages and spleen from vehicle and SAB-treated mice", "format": "in vivo, mouse", "conditions": "SAB-treated vs vehicle mice", "source_text": "as §1\nSAB treatment reduces CD36 expression in peritoneal macrophages. Since CD36 is expressed in monocytes and macrophages, CD36 gene expression was compared in peritoneal macrophages and the spleen, a peripheral organ that serves as a reservoir of monocytes, from vehicle and SAB-treated mice. CD36 mRNA levels were reduced in both peritoneal and spleen macrophages of SAB-treated mice (FIG. 1F). […]"}, "[7]": {"test_system": "ApoE KO mouse macrophages", "assay": "Foam cell assay / lipid accumulation in primary macrophages incubated with oxLDL", "format": "cell-based", "conditions": "48 h, vs oxLDL alone", "description": "FIG. 5. Effects of SAB on lipid accumulation in ApoE KO mouse macrophages. Primary macrophages were seeded in 4 chamber slides and then incubated with 20 μg/ml oxLDL and/or different concentrations of SAB for 48 h. (A-D) Lipids were stained with oil red O and examined by microscopy; representative images are shown. (A), vehicle only; (B), 25 μM SAB treatment; (C), 20 μg/ml oxLDL; (D), 20 μg/ml oxLDL+25 μM SAB. Scale bar, 50 μm; higher magnification micrographs of oil red O stains were shown in upper-right of each picture. (E-F), Quantification for foam cell assay in primary macrophage. White bar, macrophages incubated with vehicle only (no oxLDL or SAB); black bar, incubated with 20 μg/ml oxLDL; grey bars, incubated with 20 μg/ml oxLDL plus 10, 25 or 100 μM SAB (SAB concentration listed below each bar); (E), Degree of lipid accumulation measured as intensity of integrated optical density; (F), Foam cell average area compared to average area of control macrophages incubated with vehicle. Control (vehicle-treated) average individual macrophage cell size/ area was normalized as 1; macrophages treated with oxLDL show increased individual relative cell area resulting from lipid internalization (black bar); SAB treatment (grey bars) reduced lipid internalization and relative cell size/area. n=3-6 cells/group. **,***p<0.01, 0.001 compared with no oxLDL(0).\nSAB reduces lipid accumulation in ApoE KO mouse macrophages. Primary macrophages were isolated from ApoE KO mice and incubated with oxidized low density lipoproteins (oxLDL) and/or different concentrations of SAB for 48 h, then stained for lipid accumulation. […] Thus, CD36 antagonists can prevent accumulation of fat and lipids in cells subject to lipid-rich environments.\nSAB reduces lipid accumulation and foam cell formation. Primary macrophages cultured from ApoE KO mice show a low intensity of optical density (IOD) commensurate with small cellular area (FIGS. 5E and 5F, white bar). […]"}, "[8]": {"molecular_target": "T1, CD36", "assay": "High throughput screen for CD36 antagonists", "source_text": "Candidate modulator compounds from libraries of synthetic or natural compounds can be screened by methods known in the art (see Chinese patent number ZL200510072269.1, Publication No: CN1868546, and Chinese patent application number 200910147634.9, each hereby incorporated in its entirety by reference). Synthetic compound libraries are commercially available from a number of companies including Maybridge Chemical Co. (Trevillet, Cornwall, UK), Comgenex (Princeton, N.J.), Brandon Associates (Merrimack, N.H.), and Microsource (New Milford, Conn.). Combinatorial libraries are available or can be prepared according to known synthetic techniques. Alternatively, libraries of natural compounds in the form of bacterial, fungal, plant and animal extracts are available from e.g., Pan Laboratories (Bothell, Wash.) or MycoSearch (NC), or are readily producible by methods well known in the art. Additionally, natural and synthetically produced libraries and compounds can be further modified through conventional chemical and biochemical techniques.\nThe use of high throughput screening has allowed the identification of compounds that potently antagonize CD36 in vitro. Following isolation of CD36 antagonists by in vitro testing, experiments can be conducted to test the efficacy in vivo. […]"}, "[9]": {"molecular_target": "T1, CD36", "conditions": "Demers et al. 2004, cited from earlier work"}, "[10]": {"conditions": "SAB 100 mg/kg s.c. every other day, high fat diet 8 weeks"}, "[11]": {"conditions": "20 μg/ml oxLDL plus 10, 25 or 100 μM SAB"}}, "note": "“Also recorded” adds a separate entry of the source. Square brackets hold non-standard residues; d marks the D form. Peptide text beside a SMILES is read from it. dTrp(2-Me) = Cc1[nH]c2ccccc2c1C[C@@H](N)C(=O)O", "data": [{"compound": "O=C(/C=C/c1ccccc1)c1c[nH]c2ccccc12", "note": "[3-cinnamoyl indole]", "values": [{"measurement": "CD36 antagonist identification through high-throughput screening", "setting": "[1]", "value": "identified"}]}, {"compound": "Cc1c(C)c2c(c(C)c1O)CC[C@@](C)(CCC[C@H](C)CCC[C@H](C)CCCC(C)C)O2", "note": "[α-tocopherol]", "values": [{"measurement": "uptake of oxLDLs into macrophages", "setting": "[2]", "value": "can reduce"}, {"measurement": "expression of CD36", "setting": "[2]; macrophages", "value": "can reduce"}]}, {"compound": "CCCCCc1c2[n+](cc3c(OC)c(OC)ccc13)CCc1cc3c(cc1-2)OCO3", "note": "[13 pentyl berberine]", "values": [{"measurement": "CD36 antagonist identification through high-throughput screening", "setting": "[1]", "value": "identified"}]}, {"compound": "MSS202777: CD36 siRNA, exon11, SEQ ID NO: 5 and 6 (chain 1 ACACCAUAAGAUGUACAGUUAUUGG; chain 2 CCAAUAACUGUACAUCUUAUGGUGU; chemistry not given here)", "values": [{"measurement": "CD36 gene expression (CD36 mRNA levels)", "setting": "[3]", "value": "reduced CD36 gene expression significantly"}]}, {"compound": "MSS202775: CD36 siRNA from exon9, SEQ ID NO: 1 and 2 (chain 1 UAGCUUGGCCAAUAGGACAAAUUCC; chain 2 GGAAUUUGUCCUAUUGGCCAAGCUA; chemistry not given here)", "values": [{"measurement": "CD36 gene expression (CD36 mRNA levels)", "setting": "[3]", "value": "reduced CD36 gene expression significantly"}, {"measurement": "CD36 gene expression (CD36 mRNA levels)", "setting": "[3]; listed as siRNA 75", "value": "most effective"}]}, {"compound": "O=C(/C=C/c1ccc(O)c2c1[C@H](C(=O)O[C@H](Cc1ccc(O)c(O)c1)C(=O)O)C(c1ccc(O)c(O)c1)O2)O[C@@H](Cc1ccc(O)c(O)c1)C(=O)O", "note": "(stereo in doubt) [SAB, salvianolic acid B]", "values": [{"measurement": "reduction of visceral fat weight", "setting": "[4]; SAB 100 mg/kg s.c. every other day, 8 weeks, vs controls", "value": 60, "unit": "%"}, {"measurement": "average visceral fat weight", "setting": "[4]; SAB 100 mg/kg s.c. every other day, 8 weeks, controls 81 mg", "value": 32, "unit": "mg"}, {"measurement": "average visceral fat weight", "setting": "[4]; SAB 100 mg/kg s.c. every other day, 8 weeks, vehicle 81 mg/animal", "value": 32, "unit": "mg/animal"}, {"measurement": "fat deposition in the liver (Oil red O staining)", "setting": "[4]; [10]", "value": "profoundly reduced; also recorded: significantly reduced"}, {"measurement": "leaner compared to vehicle treated ApoE KO mice", "setting": "[4]; [10]", "value": 17, "unit": "%"}, {"measurement": "abdominal fat accumulation", "setting": "[4]; SAB 100 mg/kg s.c. every other day, high fat diet 8 weeks, physical inspection", "value": "Reduction in abdominal fat was evident; also recorded: substantially reduced; also recorded: either minimal or absent"}, {"measurement": "plasma cholesterol levels", "setting": "[4]; SAB 100 mg/kg s.c. every other day, high fat diet, 4 and 8 weeks", "value": "significantly reduced"}, {"measurement": "rate of weight gain (weekly body weight)", "setting": "[4]; SAB 100 mg/kg subcutaneously every other day, high fat diet 8 weeks, vs vehicle", "value": "significantly reduced"}, {"measurement": "lipid content in the aorta and extended vessels", "setting": "[4]; preliminary analysis, SAB-treated vs vehicle mice", "value": "trend toward lipid content reduction"}, {"measurement": "reduction of initial blood glucose spike in glucose tolerance test", "setting": "[5]; 45 minutes after challenge, intraperitoneal injection of 1.5 mg glucose/kg, vehicle less than 10%", "value": 75, "unit": "%"}, {"measurement": "AUCglucose (glucose area under the curve) in glucose tolerance test", "setting": "[5]; SAB-treated vs vehicle-treated mice", "value": "significant reduction"}, {"measurement": "fasting blood glucose levels vs control mice", "setting": "[5]; zero, four, and eight weeks of treatment", "value": "similar"}, {"measurement": "CD36 mRNA levels in peritoneal macrophages", "setting": "[6]", "value": "reduced"}, {"measurement": "CD36 mRNA levels in spleen macrophages", "setting": "[6]", "value": "reduced"}, {"measurement": "lipid accumulation (oil red O staining)", "setting": "[7]; 20 μg/ml oxLDL + 25 μM SAB", "value": "significantly reduced lipid accumulation"}, {"measurement": "lipid accumulation as intensity of optical density (IOD)", "setting": "[7]; [11]", "value": "significantly reduced"}, {"measurement": "relative cell area (foam cell average area)", "setting": "[7]; [11]", "value": "significantly reduced"}, {"measurement": "CD36 antagonist identification in high throughput screen", "setting": "[8]", "value": "identified as a CD36 antagonist"}]}, {"compound": "Cc1[nH]c2ccccc2c1C[C@@H](NC(=O)[C@@H](N)Cc1cnc[nH]1)C(=O)N[C@@H](C)C(=O)N[C@@H](Cc1c[nH]c2ccccc12)C(=O)N[C@H](Cc1ccccc1)C(=O)N[C@@H](CCCCN)C(N)=O", "note": "[hexarelin] (H-H[dTrp(2-Me)]AW[dF]K-NH2)", "values": [{"measurement": "binding to CD36 receptors", "setting": "[9]", "value": "binds"}, {"measurement": "CD36-mediated uptake of oxLDLs", "setting": "[9]; binding site competition", "value": "blocks"}]}, {"compound": "MSS202776: CD36 siRNA, exon7, SEQ ID NO: 3 and 4 (chain 1 CUUGUUUGGAACACAGAAGACUUGG; chain 2 CCAAGUCUUCUAUGUUCCAAACAAG; chemistry not given here)", "values": [{"measurement": "CD36 gene expression (CD36 mRNA levels)", "setting": "[3]", "value": "reduced CD36 gene expression significantly"}]}]}
